From the kinase profiling compilation of Christmann-Franck et al. (2016)

Legend:
Experiment in all cases: KINOMEscan competition binding
Settings in all cases: compound 10.0 µM
[1] = target: PIK3C2G (human) (UniProt O75747)
[2] = target: CSK (human) (UniProt P41240)
[3] = target: MAP4K1 (human) (UniProt Q92918)
[4] = target: SYK (human) (UniProt P43405)
[5] = target: RPS6KA1 KD2 (human) (UniProt Q15418)
[6] = target: NUAK2 (human) (UniProt Q9H093)
[7] = target: CaMK1 (human) (UniProt Q14012)
[8] = target: PTK6 (human) (UniProt Q13882)
[9] = target: AURKB (human) (UniProt Q96GD4)
[10] = target: RIPK1 (human) (UniProt Q13546)
[11] = target: MYLK (human) (UniProt Q15746)
[12] = target: PIP4K2C (human) (UniProt Q8TBX8)
[13] = target: MELK (human) (UniProt Q14680)
[14] = target: CAMKK2 (human) (UniProt Q96RR4)
[15] = target: PKN2 (human) (UniProt Q16513)
[16] = target: RAF1 (human) (UniProt P04049)
[17] = test system: KIT (human), P10721 [V559D]
[18] = target: LATS1 (human) (UniProt O95835)
[19] = target: MAP3K15 (human) (UniProt Q6ZN16)
[20] = test system: RET (human), P07949 [V804M]
[21] = target: SIK1 (human) (UniProt P57059)
[22] = target: MAP3K1 (human) (UniProt Q13233)
[23] = target: NTRK1 (human) (UniProt P04629)
[24] = target: GRK7 (human) (UniProt Q8WTQ7)
[25] = test system: LRRK2 (human), Q5S007 [G2019S]
[26] = target: FGFR1 (human) (UniProt P11362)
[27] = target: MAP4K2 (human) (UniProt Q12851)
[28] = target: MAPK11 (human) (UniProt Q15759)
[29] = target: PRKCE (human) (UniProt Q02156)
[30] = target: PAK6 (human) (UniProt Q9NQU5)
[31] = target: PI4KB (human) (UniProt Q9UBF8)
[32] = target: MARK4 (human) (UniProt Q96L34)
[33] = target: MYLK2 (human) (UniProt Q9H1R3)
[34] = target: PLK4 (human) (UniProt O00444)
[35] = target: AKT2 (human) (UniProt P31751)
[36] = target: JAK1 JH2 pseudokinase (human) (UniProt P23458)
[37] = target: RIOK1 (human) (UniProt Q9BRS2)
[38] = target: SRC (human) (UniProt P12931)
[39] = test system: PIK3CA (human), P42336 [E545K]
[40] = target: MYLK3 (human) (UniProt Q32MK0)
[41] = test system: EGFR (human), P00533 [L858R]

CAMKK2 (human), sequence (Q96RR4 whole entry, looked up): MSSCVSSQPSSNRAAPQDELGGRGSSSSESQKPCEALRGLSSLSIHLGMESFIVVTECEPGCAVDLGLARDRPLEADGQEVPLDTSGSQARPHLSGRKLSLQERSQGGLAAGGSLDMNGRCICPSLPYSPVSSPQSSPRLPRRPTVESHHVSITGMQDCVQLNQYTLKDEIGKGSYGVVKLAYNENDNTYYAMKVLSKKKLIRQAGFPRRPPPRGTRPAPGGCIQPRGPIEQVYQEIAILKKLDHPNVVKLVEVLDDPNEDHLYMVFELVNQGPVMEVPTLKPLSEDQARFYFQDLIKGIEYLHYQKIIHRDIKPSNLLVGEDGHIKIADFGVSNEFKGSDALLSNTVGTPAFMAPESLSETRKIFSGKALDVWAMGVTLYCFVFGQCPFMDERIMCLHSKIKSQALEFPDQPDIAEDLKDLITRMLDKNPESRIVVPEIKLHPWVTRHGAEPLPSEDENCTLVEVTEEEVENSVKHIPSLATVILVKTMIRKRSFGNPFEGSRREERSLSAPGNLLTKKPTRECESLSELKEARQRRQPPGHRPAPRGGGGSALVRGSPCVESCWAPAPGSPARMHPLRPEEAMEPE
AURKB (human), sequence (Q96GD4 whole entry, looked up): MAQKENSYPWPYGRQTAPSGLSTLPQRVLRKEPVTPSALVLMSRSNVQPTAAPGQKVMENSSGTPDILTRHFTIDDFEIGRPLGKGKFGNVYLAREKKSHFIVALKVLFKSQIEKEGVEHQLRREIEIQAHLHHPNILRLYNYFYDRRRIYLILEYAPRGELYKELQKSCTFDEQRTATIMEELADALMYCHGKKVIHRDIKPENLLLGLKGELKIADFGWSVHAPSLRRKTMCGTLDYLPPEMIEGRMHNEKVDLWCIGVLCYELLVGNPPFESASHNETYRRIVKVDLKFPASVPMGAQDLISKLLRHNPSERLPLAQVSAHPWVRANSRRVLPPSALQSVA
MARK4 (human), sequence (Q96L34 whole entry, looked up): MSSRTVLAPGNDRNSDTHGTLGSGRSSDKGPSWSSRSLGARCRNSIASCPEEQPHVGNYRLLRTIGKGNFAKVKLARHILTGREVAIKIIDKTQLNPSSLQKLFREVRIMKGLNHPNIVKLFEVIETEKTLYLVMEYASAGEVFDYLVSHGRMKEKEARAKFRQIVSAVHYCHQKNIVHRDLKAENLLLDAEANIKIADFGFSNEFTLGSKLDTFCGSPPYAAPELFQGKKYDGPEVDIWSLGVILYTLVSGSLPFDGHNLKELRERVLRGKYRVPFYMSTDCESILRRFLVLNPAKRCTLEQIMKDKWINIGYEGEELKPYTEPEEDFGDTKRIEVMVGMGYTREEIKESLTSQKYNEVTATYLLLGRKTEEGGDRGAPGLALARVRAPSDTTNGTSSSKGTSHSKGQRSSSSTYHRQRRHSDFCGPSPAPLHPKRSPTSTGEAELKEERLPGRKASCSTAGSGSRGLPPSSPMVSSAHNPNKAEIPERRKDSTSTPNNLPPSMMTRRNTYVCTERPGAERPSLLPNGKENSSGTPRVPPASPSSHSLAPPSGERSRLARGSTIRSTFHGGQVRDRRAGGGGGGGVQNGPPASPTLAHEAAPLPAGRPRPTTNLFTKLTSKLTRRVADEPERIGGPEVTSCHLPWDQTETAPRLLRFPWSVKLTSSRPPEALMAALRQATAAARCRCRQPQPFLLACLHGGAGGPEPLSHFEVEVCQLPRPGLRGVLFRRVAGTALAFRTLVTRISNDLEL
AKT2 (human), sequence (P31751 whole entry, looked up): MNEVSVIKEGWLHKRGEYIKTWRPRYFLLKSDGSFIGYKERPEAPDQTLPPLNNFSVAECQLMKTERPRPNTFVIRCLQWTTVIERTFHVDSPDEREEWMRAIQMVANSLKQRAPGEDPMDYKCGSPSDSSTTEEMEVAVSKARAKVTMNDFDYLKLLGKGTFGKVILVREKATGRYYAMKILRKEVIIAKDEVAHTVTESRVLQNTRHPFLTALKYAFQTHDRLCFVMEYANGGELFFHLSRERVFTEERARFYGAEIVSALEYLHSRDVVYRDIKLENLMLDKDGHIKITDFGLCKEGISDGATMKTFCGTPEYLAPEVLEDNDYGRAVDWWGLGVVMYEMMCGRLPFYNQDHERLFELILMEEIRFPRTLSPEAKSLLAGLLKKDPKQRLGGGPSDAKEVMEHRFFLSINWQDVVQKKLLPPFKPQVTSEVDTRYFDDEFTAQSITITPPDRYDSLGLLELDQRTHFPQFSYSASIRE
GRK7 (human), sequence (Q8WTQ7 whole entry, looked up): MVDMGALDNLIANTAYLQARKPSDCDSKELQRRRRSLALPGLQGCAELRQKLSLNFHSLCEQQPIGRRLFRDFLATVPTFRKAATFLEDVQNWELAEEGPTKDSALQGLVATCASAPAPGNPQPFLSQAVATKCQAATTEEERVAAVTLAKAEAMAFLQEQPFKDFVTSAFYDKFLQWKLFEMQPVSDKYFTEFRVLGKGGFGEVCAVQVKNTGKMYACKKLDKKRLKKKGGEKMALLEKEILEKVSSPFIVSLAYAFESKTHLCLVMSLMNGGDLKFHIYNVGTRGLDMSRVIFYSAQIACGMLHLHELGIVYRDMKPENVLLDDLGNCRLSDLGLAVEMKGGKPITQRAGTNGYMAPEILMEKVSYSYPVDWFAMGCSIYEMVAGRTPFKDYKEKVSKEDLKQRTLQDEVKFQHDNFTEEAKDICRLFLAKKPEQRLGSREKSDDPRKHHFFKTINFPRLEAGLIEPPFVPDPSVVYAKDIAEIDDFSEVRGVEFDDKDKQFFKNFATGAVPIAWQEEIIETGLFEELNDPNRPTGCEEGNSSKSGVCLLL
FGFR1 (human), sequence (P11362 whole entry, looked up): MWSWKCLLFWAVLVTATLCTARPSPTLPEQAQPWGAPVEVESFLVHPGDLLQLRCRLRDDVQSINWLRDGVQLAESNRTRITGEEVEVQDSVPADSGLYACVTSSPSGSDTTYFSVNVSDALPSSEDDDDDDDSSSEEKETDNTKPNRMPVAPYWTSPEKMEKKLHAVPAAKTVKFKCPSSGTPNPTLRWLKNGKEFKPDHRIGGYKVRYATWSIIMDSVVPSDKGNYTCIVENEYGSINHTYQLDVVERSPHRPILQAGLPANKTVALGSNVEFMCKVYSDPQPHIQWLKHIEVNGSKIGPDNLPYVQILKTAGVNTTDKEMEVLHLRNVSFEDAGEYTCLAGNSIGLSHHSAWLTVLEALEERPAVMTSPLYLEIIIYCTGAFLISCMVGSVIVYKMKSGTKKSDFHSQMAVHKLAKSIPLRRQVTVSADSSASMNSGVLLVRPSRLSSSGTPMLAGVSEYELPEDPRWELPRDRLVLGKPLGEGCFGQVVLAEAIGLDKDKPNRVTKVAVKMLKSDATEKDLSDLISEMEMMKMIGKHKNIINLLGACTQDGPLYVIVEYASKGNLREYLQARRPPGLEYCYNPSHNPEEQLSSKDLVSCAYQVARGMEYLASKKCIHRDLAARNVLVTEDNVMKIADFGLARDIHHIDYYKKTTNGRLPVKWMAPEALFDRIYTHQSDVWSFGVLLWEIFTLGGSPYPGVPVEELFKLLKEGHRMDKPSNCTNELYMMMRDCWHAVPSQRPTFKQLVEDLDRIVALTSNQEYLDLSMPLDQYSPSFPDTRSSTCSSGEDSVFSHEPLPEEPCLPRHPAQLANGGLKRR
PLK4 (human), sequence (O00444 whole entry, looked up): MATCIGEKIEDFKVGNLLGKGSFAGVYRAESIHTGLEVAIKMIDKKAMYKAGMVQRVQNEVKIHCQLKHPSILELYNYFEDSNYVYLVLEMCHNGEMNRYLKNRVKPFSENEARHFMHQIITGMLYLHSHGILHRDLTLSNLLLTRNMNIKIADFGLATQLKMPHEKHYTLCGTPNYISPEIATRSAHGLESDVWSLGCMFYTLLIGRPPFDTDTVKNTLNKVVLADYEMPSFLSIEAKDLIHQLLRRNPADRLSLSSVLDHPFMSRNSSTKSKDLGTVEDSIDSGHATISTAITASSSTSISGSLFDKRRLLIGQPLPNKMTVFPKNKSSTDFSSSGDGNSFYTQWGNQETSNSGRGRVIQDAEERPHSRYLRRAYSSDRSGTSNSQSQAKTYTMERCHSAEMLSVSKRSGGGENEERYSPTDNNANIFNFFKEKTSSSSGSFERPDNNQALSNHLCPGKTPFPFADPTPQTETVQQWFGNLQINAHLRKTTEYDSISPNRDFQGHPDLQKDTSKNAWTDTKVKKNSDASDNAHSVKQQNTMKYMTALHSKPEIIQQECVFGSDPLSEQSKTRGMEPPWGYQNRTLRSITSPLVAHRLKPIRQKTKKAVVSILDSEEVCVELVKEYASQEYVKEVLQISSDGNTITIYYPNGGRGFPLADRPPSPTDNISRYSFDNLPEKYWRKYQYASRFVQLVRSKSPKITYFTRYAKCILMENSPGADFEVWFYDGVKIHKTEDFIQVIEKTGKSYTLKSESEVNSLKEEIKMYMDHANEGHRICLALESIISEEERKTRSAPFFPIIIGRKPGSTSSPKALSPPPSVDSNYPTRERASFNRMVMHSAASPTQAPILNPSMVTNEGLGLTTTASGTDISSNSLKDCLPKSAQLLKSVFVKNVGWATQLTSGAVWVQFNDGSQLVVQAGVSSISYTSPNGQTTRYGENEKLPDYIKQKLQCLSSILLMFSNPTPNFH
MAPK11 (human), sequence (Q15759 whole entry, looked up): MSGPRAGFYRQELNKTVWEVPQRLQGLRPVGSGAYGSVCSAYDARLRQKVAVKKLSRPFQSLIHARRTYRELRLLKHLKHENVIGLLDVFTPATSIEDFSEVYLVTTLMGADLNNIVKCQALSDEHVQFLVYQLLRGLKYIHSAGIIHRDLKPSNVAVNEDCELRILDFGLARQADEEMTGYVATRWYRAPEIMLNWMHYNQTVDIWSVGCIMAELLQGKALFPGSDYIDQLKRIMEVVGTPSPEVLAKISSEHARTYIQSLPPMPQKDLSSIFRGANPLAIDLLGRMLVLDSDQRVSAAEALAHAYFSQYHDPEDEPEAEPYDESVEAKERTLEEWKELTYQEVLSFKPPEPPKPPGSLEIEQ

Work on CC(C)n1nc(-c2cc3cc(O)ccc3[nH]2)c2c(N)ncnc21 yielded a kinase still bound, per cent of control [1] of 3.4%, a kinase still bound, per cent of control [2] of 15% and a kinase still bound, per cent of control [3] of 33%. It also gave a kinase still bound, per cent of control [4] of 100%, a kinase still bound, per cent of control [5] of 46% and a kinase still bound, per cent of control [6] of 9.2%. For the same molecule, the kinase still bound, per cent of control [7] was 45%, the kinase still bound, per cent of control [8] was 32% and the kinase still bound, per cent of control [9] was 85%. The kinase still bound, per cent of control [10] was 100%, the per cent of control [11] was 0.9% and the kinase still bound, per cent of control [12] was 9.9%. It also gave a kinase still bound, per cent of control [13] of 10%, a kinase still bound, per cent of control [14] of 30% and a kinase still bound, per cent of control [15] of 86%. The kinase still bound, per cent of control [16] was 41%, the kinase still bound, per cent of control [17] was 0.3% and the kinase still bound, per cent of control [18] was 55%. It also gave a kinase still bound, per cent of control [19] of 76%, a kinase still bound, per cent of control [20] of 12% and a kinase still bound, per cent of control [21] of 13%. For the same molecule, the kinase still bound, per cent of control [22] was 45%, the kinase still bound, per cent of control [23] was 46% and the kinase still bound, per cent of control [24] was 2.9%. The kinase still bound, per cent of control [25] was 2.6%, the kinase still bound, per cent of control [26] was 8.5% and the kinase still bound, per cent of control [27] was 0%. The kinase still bound, per cent of control [28] was 100%, the kinase still bound, per cent of control [29] was 0% and the kinase still bound, per cent of control [30] was 23%. For the same molecule, the kinase still bound, per cent of control [31] was 2.4%, the kinase still bound, per cent of control [32] was 82% and the kinase still bound, per cent of control [33] was 43%. It also gave a kinase still bound, per cent of control [34] of 2.6%, a kinase still bound, per cent of control [35] of 100% and a kinase still bound, per cent of control [36] of 0.2%. It also gave a kinase still bound, per cent of control [37] of 100%.

CCC(=O)N1CCN(c2ccc(-n3c(=O)ccc4cnc5ccc(-c6cnc7ccccc7c6)cc5c43)cc2C(F)(F)F)CC1 showed a kinase still bound, per cent of control [1] of 11%, a kinase still bound, per cent of control [2] of 71% and a kinase still bound, per cent of control [3] of 30%. For the same molecule, the kinase still bound, per cent of control [4] was 78%, the kinase still bound, per cent of control [5] was 100% and the kinase still bound, per cent of control [38] was 95%. It also gave a kinase still bound, per cent of control [6] of 100%, a kinase still bound, per cent of control [7] of 50% and a kinase still bound, per cent of control [8] of 51%. The kinase still bound, per cent of control [9] was 82%, the kinase still bound, per cent of control [10] was 1.9% and the per cent of control [11] was 87%. It also gave a kinase still bound, per cent of control [12] of 58%, a kinase still bound, per cent of control [13] of 50% and a kinase still bound, per cent of control [14] of 85%. For the same molecule, the kinase still bound, per cent of control [15] was 65%, the kinase still bound, per cent of control [16] was 48% and the kinase still bound, per cent of control [39] was 0.6%. It also gave a kinase still bound, per cent of control [17] of 50%, a kinase still bound, per cent of control [18] of 100% and a kinase still bound, per cent of control [19] of 100%. It also gave a kinase still bound, per cent of control [20] of 69%, a kinase still bound, per cent of control [21] of 80% and a kinase still bound, per cent of control [22] of 92%. For the same molecule, the kinase still bound, per cent of control [23] was 64%, the kinase still bound, per cent of control [24] was 100% and the kinase still bound, per cent of control [25] was 99%. For the same molecule, the kinase still bound, per cent of control [26] was 96%, the kinase still bound, per cent of control [27] was 35% and the kinase still bound, per cent of control [28] was 53%. The kinase still bound, per cent of control [29] was 86%, the kinase still bound, per cent of control [30] was 77% and the kinase still bound, per cent of control [31] was 96%. It also gave a kinase still bound, per cent of control [32] of 100%, a kinase still bound, per cent of control [40] of 94% and a kinase still bound, per cent of control [41] of 100%. It also gave a kinase still bound, per cent of control [33] of 40%, a kinase still bound, per cent of control [34] of 100% and a kinase still bound, per cent of control [35] of 100%. The kinase still bound, per cent of control [36] was 76% and the kinase still bound, per cent of control [37] was 81%.

Molecule COC(=O)Nc1ccc(-c2nc(N3CCOCC3)c3cnn(C4CCN(C(=O)OC)CC4)c3n2)cc1 has a kinase still bound, per cent of control [1] of 24%, a kinase still bound, per cent of control [2] of 98% and a kinase still bound, per cent of control [3] of 100%. The kinase still bound, per cent of control [4] was 83%, the kinase still bound, per cent of control [5] was 100% and the kinase still bound, per cent of control [38] was 95%. It also gave a kinase still bound, per cent of control [6] of 84%, a kinase still bound, per cent of control [7] of 96% and a kinase still bound, per cent of control [8] of 88%. The kinase still bound, per cent of control [9] was 100%, the kinase still bound, per cent of control [10] was 100% and the per cent of control [11] was 81%. It also gave a kinase still bound, per cent of control [12] of 12%, a kinase still bound, per cent of control [13] of 86% and a kinase still bound, per cent of control [14] of 84%. The kinase still bound, per cent of control [15] was 100%, the kinase still bound, per cent of control [16] was 91% and the kinase still bound, per cent of control [39] was 4.9%. The kinase still bound, per cent of control [17] was 96%, the kinase still bound, per cent of control [18] was 100% and the kinase still bound, per cent of control [19] was 96%. It also gave a kinase still bound, per cent of control [20] of 100%, a kinase still bound, per cent of control [21] of 100% and a kinase still bound, per cent of control [22] of 94%. It also gave a kinase still bound, per cent of control [23] of 71%, a kinase still bound, per cent of control [24] of 100% and a kinase still bound, per cent of control [25] of 80%. For the same molecule, the kinase still bound, per cent of control [26] was 100%, the kinase still bound, per cent of control [27] was 100% and the kinase still bound, per cent of control [28] was 80%. For the same molecule, the kinase still bound, per cent of control [29] was 94%, the kinase still bound, per cent of control [30] was 100% and the kinase still bound, per cent of control [31] was 100%. It also gave a kinase still bound, per cent of control [32] of 96%, a kinase still bound, per cent of control [40] of 100% and a kinase still bound, per cent of control [41] of 100%. The kinase still bound, per cent of control [33] was 100%, the kinase still bound, per cent of control [34] was 100% and the kinase still bound, per cent of control [35] was 100%. The kinase still bound, per cent of control [36] was 74% and the kinase still bound, per cent of control [37] was 92%.
